{
  "source": "patent US5057414A",
  "about": "“Method for the determination of the activity of serine proteases or serine protease inhibitors” (Behringwerke Aktiengesellschaft, priority 1987, dated 1991)",
  "key": {"[1]": {"tested_on": "PAI1", "experiment": "Example 5a: determination of PAI2 via preincubation with polycation-containing PA reagent", "assay_type": "biochemical", "details": "protamine chloride 100 U/ml or polylysine 500 μg/ml"}, "[2]": {"tested_on": "urokinase", "experiment": "Comparison Experiment 1: conversion of chromogenic plasmin substrate / activity of urokinase in plasma with lysine and/or ammonium peroxodisulfate", "assay_type": "biochemical", "protocol": "50μl of a plasma which is deficient in alpha2 -antiplasmin and has been prepared by immunoadsorption, as well as 1:2, 1:4 and 1:8 mixtures of this deficient plasma with normal plasma, where mixed with 200 μl or solution C (plasminogen activator reagent).\n[…] of a 3 mM solution of H-D-Phe-Tyr-Arg-ANBA . 2 HCl in solution A and 500 µl of a plasminogen solution (2 CTA-U/ml) in solution A were added to the samples, the mixtures were incubated at 37° C. for 20 min, subsequently 100 μL of 8.5 M acetic acid were used to stop, and the extinction at 405 nm was determined. […] It is evident that addition of lysine increases the activity of urokinase by more than 100%."}, "[3]": {"molecular_target": "T1, plasmin and alpha2-antiplasmin (Homo sapiens, UniProt P00747)", "T1 construct": "native proteins", "T1 sequence (P00747 97-810, one chain of several)": "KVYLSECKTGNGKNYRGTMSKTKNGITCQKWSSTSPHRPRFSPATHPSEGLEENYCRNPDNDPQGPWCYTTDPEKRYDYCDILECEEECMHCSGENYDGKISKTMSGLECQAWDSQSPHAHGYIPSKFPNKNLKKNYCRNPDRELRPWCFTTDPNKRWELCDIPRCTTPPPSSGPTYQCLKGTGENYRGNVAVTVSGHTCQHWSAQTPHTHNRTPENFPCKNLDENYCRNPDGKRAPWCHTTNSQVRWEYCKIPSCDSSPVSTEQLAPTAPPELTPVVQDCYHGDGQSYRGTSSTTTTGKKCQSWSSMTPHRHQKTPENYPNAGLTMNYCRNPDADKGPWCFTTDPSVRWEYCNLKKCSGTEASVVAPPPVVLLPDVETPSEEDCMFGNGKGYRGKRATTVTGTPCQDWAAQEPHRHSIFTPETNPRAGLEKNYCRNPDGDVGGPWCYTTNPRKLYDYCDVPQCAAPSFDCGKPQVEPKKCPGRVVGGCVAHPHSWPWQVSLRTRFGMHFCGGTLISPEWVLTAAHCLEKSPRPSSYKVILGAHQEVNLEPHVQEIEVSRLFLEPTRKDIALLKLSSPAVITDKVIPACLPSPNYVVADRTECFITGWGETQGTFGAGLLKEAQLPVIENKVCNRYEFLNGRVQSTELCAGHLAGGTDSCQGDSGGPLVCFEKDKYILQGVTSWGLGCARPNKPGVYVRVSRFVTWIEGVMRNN", "experiment": "Slowing of the reaction between plasmin and alpha2-antiplasmin by omega-amino carboxylic acids", "assay_type": "biochemical", "details": "lysine 10 to 3,000 mM, epsilon-aminocaproic acid 2 to 500 mM, tranexamic acid 0.1 to 50 mM"}, "[4]": {"tested_on": "plasmin", "experiment": "Comparison Experiments 5, 6, 8: optimization of reagent concentration in functional PAI (PA) determination (generated plasmin activity)", "assay_type": "biochemical", "protocol": "(§1) Preincubation of 50 μl of sample with 200 μl of a variant of solution C (plasminogen activator dissolved in basic buffer U) at 37° C. for five minutes was followed by addition of 200 μl of a variant of plasminogen reagent (F), composed of 100 mM Tris-HCl pH 8.4, crosslinked polypeptides 1%, ^R Triton×100 0.1%, 100 mM NaCl without tran-examic acid, NaN3 0.01 % (basic buffer U) with 10 CTA-U/ml plasminogen and 200 μl of distilled water with 10 mM chloramine T, 3 mM tranexamic acid to the reaction mixture. The mixture was incubated at 37° C. for 5 min, and 500 μl of 0.6 mM chromogenic plasmin substrate HD-Nva-CHA-Lys-pNA in 480 mM NaCl (or, as a substitute, 200 mM CsCl) were added. The resultant linear change in extinction, delta A/min, at 405 nm was followed."}, "[5]": {"tested_on": "plasmin", "experiment": "Comparison Experiment 11: effect of chloramine T and/or tranexamic acid on plasmin activity in the functional PAI assay", "assay_type": "biochemical", "details": "for delta A/4 min: 405 nm", "protocol": "as §1"}, "[6]": {"tested_on": "antithrombin III (AT III)", "experiment": "Comparison Experiment 13: oxidative inactivation of antithrombin III", "assay_type": "biochemical", "details": "37° C., 15 min preincubation, pH 8.8", "protocol": "50 pmol of AT III in 50 μl of 50 mM Tris, 100 mM NaCl, 0.1% (w/v) Triton×100, pH 8.8 buffer, are preincubated with increasing quantities of chloramine T or hydrogen peroxide in 50 μl of distilled water at 37° C. for 15 min. Then 3 pmol of human alpha-thrombin, 2.5 IU of heparin and 2 KIU of aprotinin in 500 μl of 100 mM Tris, 150 mM NaCl, pH 8.2, are added, and the mixture is incubated at 37° C. for 5 min. Addition of 500 μl of 0.4 mM H-D-CHA-But-ArgpNA was followed by further incubation for 3 min (37° C.). The reaction was stopped by 100 μl of 8.5 M acetic acid, and the change in extinction at 405 nm was determined."}, "[7]": {"tested_on": "human alpha-thrombin", "experiment": "Comparison Experiment 13: oxidation resistance of thrombin", "assay_type": "biochemical", "details": "500 nmol of chloramine T or 500 times the dose of H202"}, "[8]": {"tested_on": "plasminogen activator inhibitors", "details": "Lawrence and Loskutoff, Biochemistry 25, 6351-6355, 1986; cited from earlier work"}, "[9]": {"tested_on": "urokinase", "experiment": "Example 4: oxidation sensitivity of PAI1 and PAI2 (oxidation before addition of plasminogen activator reagent)", "assay_type": "biochemical", "details": "oxidation with chloramine T before addition of plasminogen activator reagent", "protocol": "50 μl of sample were incubated with 500 μl of solution A (basic buffer) and 50 μl of solution B (oxidizing reagent) at 37° C. for 10 min. Addition of 200 μl of solution C (plasminogen activator reagent) was followed by incubation at 37° C. for 5 min. The substrate conversion was started by addition of 200 μl of solution E (plasmin substrate reagent) and 100 μl of solution F (plasminogen reagent) and the mixture was incubated at 37° C. for 15 min. After addition of 100 μl of 8.5 M acetic acid, the extinction at 405 nm was determined."}, "[10]": {"tested_on": "plasmin", "experiment": "Oxidative inactivation of alpha2-antiplasmin", "assay_type": "biochemical", "text": "Accurate determination of the said proteins requires that specific and non-specific plasmin inhibitors be quantitatively inactivated. […] This effect corresponds to expectations inasmuch as the plasminogen activator inhibitors belong to the family of serine protease inhibitors (serpins) whose archetype, namely alpha1 -protease inhibitor, contains an oxidizable methionine in the active center. Oxidation of this methionine results in a methionine sulfoxide, and the inhibitory functions are lost with the formation thereof. Lawrence and Loskutoff show, both for alpha1 -protease inhibitor and for plasminogen activator inhibitor, that the inactivation is reversible by treatment with dithiothreitol and methionine-sulfoxide-peptide reductase, i.e. under the conditions described therein the plasminogen activator inhibitor is demonstrably inactivated by oxidation. It was all the less to be expected that the complexes of plasminogen activator and plasminogen activator inhibitor produced in the reaction remain intact even under the oxidizing conditions according to the invention. […] Furthermore, it is very remarkable that the reaction of a non-inhibited plasminogen activator with its substrate, a natural or synthetic plasminogen, as well as the enzymatic reactions dependent thereon, take place undisturbed during the oxidation process."}, "[11]": {"tested_on": "plasmin", "details": "Shieh and Travis, J.Biol.Chem. 262, 6055-6059, 1987; cited from earlier work"}},
  "data": [
    {"molecule": "polylysine", "values": [
      {"measurement": "PAI measured in presence of polycation in the plasminogen activator reagent", "setting": "[1]", "result": "only PAI2 (and not PAI1) was measured"}
    ]},
    {"molecule": "NCCCC[C@H](N)C(=O)O", "note": "[lysine]", "values": [
      {"measurement": "increase of the activity of urokinase", "setting": "[2]; addition of lysine (10% lysine in distilled water)", "result": "more than 100%"},
      {"measurement": "increase in the extinction compared with the sample without omega-amino carboxylic acid", "setting": "[2]; without use of an oxidizing agent", "result": "more than 100%"},
      {"measurement": "factor by which the reaction between plasmin and alpha2-antiplasmin is slowed down", "setting": "[3]", "result": "at least 10"}
    ]},
    {"molecule": "N.N.O=S(=O)(O)OOS(=O)(=O)O", "note": "[ammonium peroxodisulfate]", "values": [
      {"measurement": "dependence of the conversion of the chromogenic plasmin substrate on the quantity of alpha2-antiplasmin in the plasma", "setting": "[2]; 5% (NH4)2S2O8 in distilled water", "result": "does not depend on the quantity of alpha2 -antiplasmin"}
    ]},
    {"molecule": "NC[C@H]1CC[C@H](C(=O)O)CC1", "note": "[tranexamic acid]", "values": [
      {"measurement": "factor by which the reaction between plasmin and alpha2-antiplasmin is slowed down", "setting": "[3]", "result": "at least 10"},
      {"measurement": "tranexamic acid concentration at maximum", "setting": "[4]; in the reaction mixture, basic buffer and PAI-deficient plasma", "result": "1 to 4", "unit": "mM"},
      {"measurement": "increase in plasmin activity with alpha2-antiplasmin-deficient plasma compared with normal plasma", "setting": "[5]", "result": "about 70%"},
      {"measurement": "delta A/4 min", "setting": "[5]; Normal plasma without alpha2-antiplasmin", "result": 829, "unit": "mA"},
      {"measurement": "delta A/4 min", "setting": "[5]; Normal plasma", "result": 488, "unit": "mA"}
    ]},
    {"molecule": "O=S(=O)(NCl)c1ccccc1", "note": "[chloramine B]", "values": [
      {"measurement": "results with chloramine B in place of chloramine T", "setting": "[4]; Comparison Experiment 5b", "result": "the same as represented for chloramine T"}
    ]},
    {"molecule": "protamine chloride", "values": [
      {"measurement": "PAI measured in presence of polycation in the plasminogen activator reagent", "setting": "[1]", "result": "only PAI2 (and not PAI1) was measured"}
    ]},
    {"molecule": "NCCCCCC(=O)O", "note": "[epsilon-aminocaproic acid]", "values": [
      {"measurement": "factor by which the reaction between plasmin and alpha2-antiplasmin is slowed down", "setting": "[3]", "result": "at least 10"}
    ]},
    {"molecule": "OO", "note": "[hydrogen peroxide]", "values": [
      {"measurement": "dose of hydrogen peroxide inactivating 50 pmol of AT III, as a multiple", "setting": "[6]", "result": 500, "unit": "times the dose"},
      {"measurement": "activity of thrombin at the dose inactivating AT III", "setting": "[7]", "result": "without the activity of thrombin being impaired"},
      {"measurement": "concentration inactivating plasminogen activator inhibitors", "setting": "[8]", "result": "about 10 mM"}
    ]},
    {"molecule": "PAI2: placental inhibitors: these include the inhibitors released from the placenta and leukocytes (protein, UniProt P05120 1-415, looked up) Plasminogen activator …: MEDLCVANTLFALNLFKHLAKASPTQNLFLSPWSISSTMAMVYMGSRGSTEDQMAKVLQFNEVGANAVTPMTPENFTSCGFMQQIQKGSYPDAILQAQAADKIHSSFRSLSSAINASTGNYLLESVNKLFGEKSASFREEYIRLCQKYYSSEPQAVDFLECAEEARKKINSWVKTQTKGKIPNLLPEGSVDGDTRMVLVNAVYFKGKWKTPFEKKLNGLYPFRVNSAQRTPVQMMYLREKLNIGYIEDLKAQILELPYAGDVSMFLLLPDEIADVSTGLELLESEITYDKLNKWTSKDKMAEDEVEVYIPQFKLEEHYELRSILRSMGMEDAFNKGRANFSGMSERNDLFLSEVFHQAMVDVNEEGTEAAAGTGGVMTGRTGHGGPQFVADHPFLFLIMHKITNCILFFGRFSSP", "values": [
      {"measurement": "sensitivity to oxidation", "setting": "[9]", "result": "less sensitive to oxidation"}
    ]},
    {"molecule": "alpha2 -antiplasmin: specific plasmin inhibitor (protein, UniProt P08697 40-491, looked up) Alpha-2-antiplasmin: NQEQVSPLTLLKLGNQEPGGQTALKSPPGVCSRDPTPEQTHRLARAMMAFTADLFSLVAQTSTCPNLILSPLSVALALSHLALGAQNHTLQRLQQVLHAGSGPCLPHLLSRLCQDLGPGAFRLAARMYLQKGFPIKEDFLEQSEQLFGAKPVSLTGKQEDDLANINQWVKEATEGKIQEFLSGLPEDTVLLLLNAIHFQGFWRNKFDPSLTQRDSFHLDEQFTVPVEMMQARTYPLRWFLLEQPEIQVAHFPFKNNMSFVVLVPTHFEWNVSQVLANLSWDTLHPPLVWERPTKVRLPKLYLKHQMDLVATLSQLGLQELFQAPDLRGISEQSLVVSGVQHQSTLELSEVGVEAAAATSIAMSRMSLSSFSVNRPFLFFIFEDTTGLPLFVGSVRNPNPSAPRELKEQQDSPGNKDFLQSLKGFPRGDKLFGPDLKLVPPMEEDYPQFGSPK", "values": [
      {"measurement": "inactivation of alpha2-antiplasmin under the oxidizing conditions of the invention", "setting": "[10]", "result": "nearly completely inactivated"},
      {"measurement": "resistance of alpha2-antiplasmin to oxidation", "setting": "[11]", "result": "resistant to oxidation"}
    ]}
  ]
}
